Experimental findings from PMC11167047 (Cell Death Discovery, 2024) are described below.

Assay in all cases: kinome screen (33PanQinase)
Type in all cases: biochemical

In test [1] the target is T1, DYRK3 (Homo sapiens, UniProt O43781).
T1 construct: purchased Reaction Biology Europe GmbH (formerly ProQinase)
T1 sequence (O43781 1-588): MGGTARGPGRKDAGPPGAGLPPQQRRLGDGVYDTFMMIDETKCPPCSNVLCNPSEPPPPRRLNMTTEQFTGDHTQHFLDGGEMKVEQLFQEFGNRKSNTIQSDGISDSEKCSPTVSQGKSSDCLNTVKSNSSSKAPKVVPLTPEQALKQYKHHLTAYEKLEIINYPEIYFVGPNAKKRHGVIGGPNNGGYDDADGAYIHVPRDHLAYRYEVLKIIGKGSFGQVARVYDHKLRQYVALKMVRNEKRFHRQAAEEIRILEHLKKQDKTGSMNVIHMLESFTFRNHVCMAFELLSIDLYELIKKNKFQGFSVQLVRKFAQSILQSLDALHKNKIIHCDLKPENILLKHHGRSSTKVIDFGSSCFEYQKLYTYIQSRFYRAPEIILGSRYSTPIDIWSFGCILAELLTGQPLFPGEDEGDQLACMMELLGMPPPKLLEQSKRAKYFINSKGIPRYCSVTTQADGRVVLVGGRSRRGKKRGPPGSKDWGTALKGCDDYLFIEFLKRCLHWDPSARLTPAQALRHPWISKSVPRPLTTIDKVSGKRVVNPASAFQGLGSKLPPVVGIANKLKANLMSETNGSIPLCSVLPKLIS
As for the experimental part: (§1) The Kinome Screening was performed by Reaction Biology Europe GmbH (http://reactionbiology.com; Freiburg i. Br., Germany).

Test [2] has as its target T2, SLK (Homo sapiens, UniProt Q9H2G2).
T2 construct: purchased Reaction Biology Europe GmbH (formerly ProQinase)
The procedure: as §1

Test [3] concerns the target T3, MERTK (Homo sapiens, UniProt Q12866).
T3 construct: purchased Reaction Biology Europe GmbH (formerly ProQinase)
T3 sequence (Q12866 21-999): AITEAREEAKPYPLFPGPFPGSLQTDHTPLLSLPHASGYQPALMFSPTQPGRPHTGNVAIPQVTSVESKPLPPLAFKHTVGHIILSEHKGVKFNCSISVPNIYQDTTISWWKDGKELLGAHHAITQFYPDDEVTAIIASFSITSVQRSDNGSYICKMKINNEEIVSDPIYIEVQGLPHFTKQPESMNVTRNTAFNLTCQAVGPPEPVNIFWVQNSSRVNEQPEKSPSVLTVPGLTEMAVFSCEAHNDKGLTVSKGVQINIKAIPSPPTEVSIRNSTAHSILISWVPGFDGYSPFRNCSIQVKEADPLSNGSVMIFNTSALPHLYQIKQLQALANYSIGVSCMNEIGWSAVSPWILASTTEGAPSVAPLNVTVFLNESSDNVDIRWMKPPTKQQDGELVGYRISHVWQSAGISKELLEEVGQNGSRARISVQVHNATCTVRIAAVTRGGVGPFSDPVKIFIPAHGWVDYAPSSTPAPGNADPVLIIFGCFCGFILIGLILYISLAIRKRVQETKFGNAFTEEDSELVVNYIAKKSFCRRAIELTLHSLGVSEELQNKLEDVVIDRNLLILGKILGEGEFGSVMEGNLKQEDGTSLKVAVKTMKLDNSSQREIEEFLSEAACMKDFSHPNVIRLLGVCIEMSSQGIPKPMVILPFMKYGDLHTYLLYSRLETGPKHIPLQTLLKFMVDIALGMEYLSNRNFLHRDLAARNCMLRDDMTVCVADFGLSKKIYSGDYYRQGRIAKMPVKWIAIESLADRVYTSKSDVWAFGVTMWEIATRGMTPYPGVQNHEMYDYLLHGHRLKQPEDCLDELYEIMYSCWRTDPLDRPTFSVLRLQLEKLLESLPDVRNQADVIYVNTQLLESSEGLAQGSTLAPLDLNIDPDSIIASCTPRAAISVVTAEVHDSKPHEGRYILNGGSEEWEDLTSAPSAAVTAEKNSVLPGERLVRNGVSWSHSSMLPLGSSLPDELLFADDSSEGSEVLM
As for the experimental part: as §1

The target in test [4] is T4, RET (Homo sapiens, UniProt P07949).
T4 construct: purchased Reaction Biology Europe GmbH (formerly ProQinase)
The procedure:
as §1

The target of test [5] is T5, MEK1 (Homo sapiens, UniProt Q02750).
T5 construct: purchased Reaction Biology Europe GmbH (formerly ProQinase)
The procedure:
as §1

Test [6] concerns the target T6, NEK7 (Homo sapiens, UniProt Q8TDX7).
T6 construct: purchased Reaction Biology Europe GmbH (formerly ProQinase)
The procedure:
as §1

In test [7] the target is T7, RIPK2 (Homo sapiens, UniProt O43353).
T7 construct: purchased Reaction Biology Europe GmbH (formerly ProQinase)
As for the experimental part:
as §1

The target of test [8] is T8, CDK18/CycY (Homo sapiens, UniProt Q07002).
T8 construct: purchased Reaction Biology Europe GmbH (formerly ProQinase)
As for the experimental part:
as §1

In test [9] the target is T9, JAK1 (Homo sapiens, UniProt P23458).
T9 construct: purchased Reaction Biology Europe GmbH (formerly ProQinase)
The procedure: as §1

Test [10] concerns the target T10, STK23 (Homo sapiens, UniProt Q9UPE1).
T10 construct: purchased Reaction Biology Europe GmbH (formerly ProQinase)
The procedure:
as §1

The target in test [11] is T11, BMPR1A (Homo sapiens, UniProt P36894).
T11 construct: purchased Reaction Biology Europe GmbH (formerly ProQinase)
As for the experimental part: as §1

SMILES strings stand for the structures.

T2 sequence (Q9H2G2 whole entry): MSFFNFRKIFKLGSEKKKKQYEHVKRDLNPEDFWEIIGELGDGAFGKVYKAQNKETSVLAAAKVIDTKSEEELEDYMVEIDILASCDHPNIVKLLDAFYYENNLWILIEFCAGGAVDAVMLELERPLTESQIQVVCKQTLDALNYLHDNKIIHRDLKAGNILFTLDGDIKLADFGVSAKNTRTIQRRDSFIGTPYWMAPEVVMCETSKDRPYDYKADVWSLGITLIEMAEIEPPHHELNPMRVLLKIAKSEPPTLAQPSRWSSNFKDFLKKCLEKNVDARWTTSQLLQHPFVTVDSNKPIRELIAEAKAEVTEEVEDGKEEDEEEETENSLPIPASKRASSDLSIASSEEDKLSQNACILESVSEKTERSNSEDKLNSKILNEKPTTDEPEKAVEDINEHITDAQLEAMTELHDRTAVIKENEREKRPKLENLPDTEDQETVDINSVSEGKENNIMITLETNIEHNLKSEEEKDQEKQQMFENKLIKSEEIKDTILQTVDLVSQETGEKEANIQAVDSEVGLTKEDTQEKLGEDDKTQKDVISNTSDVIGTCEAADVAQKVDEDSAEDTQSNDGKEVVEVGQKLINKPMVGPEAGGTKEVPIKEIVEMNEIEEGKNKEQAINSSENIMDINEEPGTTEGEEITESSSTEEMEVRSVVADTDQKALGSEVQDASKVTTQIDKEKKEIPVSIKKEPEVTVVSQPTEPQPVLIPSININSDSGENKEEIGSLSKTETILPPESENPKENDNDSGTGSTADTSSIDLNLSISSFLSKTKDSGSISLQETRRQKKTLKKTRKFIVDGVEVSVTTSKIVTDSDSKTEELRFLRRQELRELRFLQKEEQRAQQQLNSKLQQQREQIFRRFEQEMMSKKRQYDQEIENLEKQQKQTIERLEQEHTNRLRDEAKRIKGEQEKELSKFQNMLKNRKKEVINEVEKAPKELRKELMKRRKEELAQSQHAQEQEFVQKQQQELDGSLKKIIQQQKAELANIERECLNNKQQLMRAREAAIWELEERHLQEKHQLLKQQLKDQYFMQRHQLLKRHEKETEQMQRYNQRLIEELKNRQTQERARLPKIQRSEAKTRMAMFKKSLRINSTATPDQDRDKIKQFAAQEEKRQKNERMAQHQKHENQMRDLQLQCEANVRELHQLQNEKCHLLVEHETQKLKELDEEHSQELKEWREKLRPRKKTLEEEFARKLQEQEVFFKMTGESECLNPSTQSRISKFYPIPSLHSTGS
T8 sequence (Q07002 whole entry): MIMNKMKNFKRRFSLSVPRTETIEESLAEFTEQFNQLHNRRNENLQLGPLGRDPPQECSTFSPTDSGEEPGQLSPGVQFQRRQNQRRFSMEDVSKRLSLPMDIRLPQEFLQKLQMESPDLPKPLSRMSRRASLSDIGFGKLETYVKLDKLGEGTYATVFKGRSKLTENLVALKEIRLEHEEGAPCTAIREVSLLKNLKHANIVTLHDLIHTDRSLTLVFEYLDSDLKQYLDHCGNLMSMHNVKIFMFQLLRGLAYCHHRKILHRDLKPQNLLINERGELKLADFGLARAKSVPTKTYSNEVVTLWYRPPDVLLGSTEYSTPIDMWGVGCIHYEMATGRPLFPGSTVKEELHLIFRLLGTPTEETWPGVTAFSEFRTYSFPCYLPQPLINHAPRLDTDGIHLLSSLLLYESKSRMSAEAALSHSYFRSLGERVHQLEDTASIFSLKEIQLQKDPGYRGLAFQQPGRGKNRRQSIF
T8 sequence (Q8ND76 whole entry partner): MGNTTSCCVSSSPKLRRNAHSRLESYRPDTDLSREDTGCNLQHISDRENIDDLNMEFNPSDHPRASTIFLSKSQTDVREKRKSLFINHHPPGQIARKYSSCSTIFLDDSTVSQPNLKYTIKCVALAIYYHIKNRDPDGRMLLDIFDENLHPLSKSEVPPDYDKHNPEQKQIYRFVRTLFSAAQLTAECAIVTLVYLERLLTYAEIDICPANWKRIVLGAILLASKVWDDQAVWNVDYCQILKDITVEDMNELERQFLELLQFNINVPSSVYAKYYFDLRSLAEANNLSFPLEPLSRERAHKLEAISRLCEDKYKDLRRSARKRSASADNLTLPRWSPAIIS
T10 sequence (Q9UPE1 whole entry): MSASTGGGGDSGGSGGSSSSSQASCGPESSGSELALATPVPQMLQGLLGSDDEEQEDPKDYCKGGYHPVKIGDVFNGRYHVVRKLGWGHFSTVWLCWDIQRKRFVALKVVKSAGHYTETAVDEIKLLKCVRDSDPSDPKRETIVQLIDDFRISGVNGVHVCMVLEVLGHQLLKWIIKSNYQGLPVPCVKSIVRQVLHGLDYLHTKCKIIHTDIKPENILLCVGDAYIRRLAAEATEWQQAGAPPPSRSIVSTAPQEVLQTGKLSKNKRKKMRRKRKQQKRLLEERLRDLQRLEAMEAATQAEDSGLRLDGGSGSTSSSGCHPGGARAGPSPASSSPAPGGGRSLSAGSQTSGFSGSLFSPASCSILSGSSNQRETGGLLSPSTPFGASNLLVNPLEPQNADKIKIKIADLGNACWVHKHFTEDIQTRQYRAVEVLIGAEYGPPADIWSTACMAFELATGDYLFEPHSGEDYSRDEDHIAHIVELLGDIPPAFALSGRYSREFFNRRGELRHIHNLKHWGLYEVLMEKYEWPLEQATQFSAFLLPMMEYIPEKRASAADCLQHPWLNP
T6 sequence (Q8TDX7 whole entry): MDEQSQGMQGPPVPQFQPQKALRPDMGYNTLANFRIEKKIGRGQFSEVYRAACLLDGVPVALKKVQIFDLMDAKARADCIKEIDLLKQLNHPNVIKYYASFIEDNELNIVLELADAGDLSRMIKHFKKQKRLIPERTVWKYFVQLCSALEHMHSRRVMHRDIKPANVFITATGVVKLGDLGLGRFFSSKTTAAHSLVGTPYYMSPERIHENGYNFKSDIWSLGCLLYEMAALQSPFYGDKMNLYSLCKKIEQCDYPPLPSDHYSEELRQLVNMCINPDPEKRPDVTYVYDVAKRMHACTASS
T9 sequence (P23458 whole entry): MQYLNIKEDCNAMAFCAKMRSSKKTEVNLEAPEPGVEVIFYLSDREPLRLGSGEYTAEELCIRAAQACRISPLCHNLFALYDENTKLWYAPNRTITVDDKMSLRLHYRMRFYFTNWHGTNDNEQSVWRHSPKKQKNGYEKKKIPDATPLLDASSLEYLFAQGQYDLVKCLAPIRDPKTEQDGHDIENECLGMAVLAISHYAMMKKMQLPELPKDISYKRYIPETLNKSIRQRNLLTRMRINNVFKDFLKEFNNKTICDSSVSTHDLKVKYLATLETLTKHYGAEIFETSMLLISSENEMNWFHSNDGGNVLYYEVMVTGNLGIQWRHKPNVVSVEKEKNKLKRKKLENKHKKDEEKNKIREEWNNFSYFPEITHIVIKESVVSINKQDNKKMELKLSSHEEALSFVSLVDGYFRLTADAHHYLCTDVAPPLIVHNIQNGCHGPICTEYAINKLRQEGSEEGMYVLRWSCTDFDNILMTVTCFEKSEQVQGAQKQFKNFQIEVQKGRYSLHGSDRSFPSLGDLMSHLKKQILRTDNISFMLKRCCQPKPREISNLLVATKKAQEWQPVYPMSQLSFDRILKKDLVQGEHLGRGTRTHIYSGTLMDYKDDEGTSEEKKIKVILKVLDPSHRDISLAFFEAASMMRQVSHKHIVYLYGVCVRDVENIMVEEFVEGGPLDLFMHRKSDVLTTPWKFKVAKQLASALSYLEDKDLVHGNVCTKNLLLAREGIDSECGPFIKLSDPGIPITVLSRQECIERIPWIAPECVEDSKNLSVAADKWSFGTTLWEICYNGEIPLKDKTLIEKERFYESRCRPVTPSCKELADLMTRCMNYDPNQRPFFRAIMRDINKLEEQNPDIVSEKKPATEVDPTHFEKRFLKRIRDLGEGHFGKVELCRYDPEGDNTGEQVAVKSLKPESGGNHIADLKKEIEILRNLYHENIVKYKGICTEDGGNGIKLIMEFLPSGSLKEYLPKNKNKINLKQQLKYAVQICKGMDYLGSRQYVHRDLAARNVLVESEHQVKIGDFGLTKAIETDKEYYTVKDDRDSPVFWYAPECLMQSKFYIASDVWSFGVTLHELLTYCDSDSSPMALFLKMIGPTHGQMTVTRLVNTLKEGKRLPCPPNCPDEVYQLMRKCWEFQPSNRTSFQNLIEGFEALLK
T11 sequence (P36894 24-532): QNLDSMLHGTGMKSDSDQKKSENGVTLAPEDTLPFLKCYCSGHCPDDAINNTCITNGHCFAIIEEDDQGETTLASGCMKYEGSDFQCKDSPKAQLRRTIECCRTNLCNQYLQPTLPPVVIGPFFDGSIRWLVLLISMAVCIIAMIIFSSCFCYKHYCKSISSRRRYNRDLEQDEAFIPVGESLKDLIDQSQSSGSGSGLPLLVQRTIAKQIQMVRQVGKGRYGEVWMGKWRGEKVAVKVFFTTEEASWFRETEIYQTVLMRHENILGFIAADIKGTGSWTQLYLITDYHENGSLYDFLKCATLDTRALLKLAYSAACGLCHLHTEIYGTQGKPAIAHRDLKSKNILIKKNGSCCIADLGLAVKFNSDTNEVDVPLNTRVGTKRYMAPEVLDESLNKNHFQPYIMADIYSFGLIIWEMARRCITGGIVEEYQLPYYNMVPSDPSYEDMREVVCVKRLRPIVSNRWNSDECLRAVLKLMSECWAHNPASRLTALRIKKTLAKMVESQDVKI
T5 sequence (Q02750 whole entry): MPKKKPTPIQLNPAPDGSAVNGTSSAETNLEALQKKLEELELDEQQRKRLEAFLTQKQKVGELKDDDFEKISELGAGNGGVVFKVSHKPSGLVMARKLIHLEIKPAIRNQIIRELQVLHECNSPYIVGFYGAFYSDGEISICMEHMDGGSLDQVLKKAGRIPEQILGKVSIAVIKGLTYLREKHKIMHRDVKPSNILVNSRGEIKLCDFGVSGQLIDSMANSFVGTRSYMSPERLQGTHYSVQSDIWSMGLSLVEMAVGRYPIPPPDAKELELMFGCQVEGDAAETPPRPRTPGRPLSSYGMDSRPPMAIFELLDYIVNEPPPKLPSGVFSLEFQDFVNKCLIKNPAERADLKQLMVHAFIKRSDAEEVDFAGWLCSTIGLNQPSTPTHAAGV

`COc1ccnc2[nH]cc(-c3cc(N)nc(N)c3)c12` [meriolin 16]: the residual kinase activity in test [1] (0.03 µM) is recorded as 27 % of control; in test [1] (0.3 µM) it was 2 % of control; in [2] (0.03 µM), 83 % of control; in test [2] (0.3 µM), 77 % of control; in test [3] (0.03 µM), 97 % of control; in test [3] (0.3 µM), 86 % of control. The residual kinase activity is 106 % of control in [4] (0.03 µM); 100 % of control in test [4] (0.3 µM); 108 % of control in test [5] (0.03 µM); 102 % of control in test [5] (0.3 µM); 111 % of control in test [6] (0.03 µM); 96 % of control in test [6] (0.3 µM). The residual kinase activity in [7] (0.03 µM) was 95 % of control; in test [7] (0.3 µM), 78 % of control; in test [8] (0.03 µM), 36 % of control; in test [8] (0.3 µM) it was 5 % of control; in test [9] (0.03 µM) it was 78 % of control; in test [9] (0.3 µM) it was 86 % of control. The residual kinase activity is 109 % of control in test [10] (0.03 µM), 78 % of control in [10] (0.3 µM), 94 % of control in [11] (0.03 µM) and 94 % of control in test [11] (0.3 µM).
Consider `c1ccc(CNc2cc(-c3c[nH]c4ncccc34)ccn2)cc1` [meriolin 36], for which the residual kinase activity in test [1] (0.3 µM) is recorded as 59 % of control; in test [1] (3 µM), 14 % of control; in test [2] (0.3 µM) it was 4 % of control; in test [2] (3 µM) it was 1 % of control; in test [3] (0.3 µM), 69 % of control; in [3] (3 µM), 36 % of control. Besides, the residual kinase activity is listed as 61 % of control in test [4] (0.3 µM); 12 % of control in test [4] (3 µM); 35 % of control in test [5] (0.3 µM); 6 % of control in test [5] (3 µM); 103 % of control in [6] (0.3 µM); 107 % of control in test [6] (3 µM). In addition, the residual kinase activity is recorded as 61 % of control in test [7] (0.3 µM); 33 % of control in [7] (3 µM); 6 % of control in test [8] (0.3 µM); 0 % of control in test [8] (3 µM); 58 % of control in test [9] (0.3 µM); 25 % of control in test [9] (3 µM). Moreover, the residual kinase activity in test [10] (0.3 µM) is 95 % of control; in [10] (3 µM), 88 % of control; in test [11] (0.3 µM), 105 % of control; in [11] (3 µM), 61 % of control.
